For 15 molecules, IC50 and EC50 results are on record in patent US12338220B2, “Antiviral pyrazolopiridinone compounds” (Novartis AG, priority 2019, dated 2025).

SMILES strings stand for the structures. Read-outs that look alike come from different tables or passages of the source.

The target in one assay is CMV-polymerase (Human cytomegalovirus (strain AD169) (HHV-5) (Human herpesvirus 5), UniProt P08546). In words: biochemical.
The target in a further assay is HSV-polymerase (Human herpesvirus 1 (strain 17) (HHV-1) (Human herpes simplex virus 1), UniProt P04293). As to the kind of experiment: biochemical.
In a further assay the test system is CMV. As to the kind of experiment: microbe, parasite or virus in culture. Type of assay: cell-based. To be noted: Human betaherpesvirus 5, 72 h, read-out: CMV-Luc Cellular EC50, NN-NHDF cells, MOI 1, 72 hrs.
[1] abbreviates: CMV-polymerase Biochemical IC50.
The mark [2] stands for this setting: read-out: CMV-polymerase Biochemical IC50.

By IC50 is commonly meant the concentration needed to halve the response being measured. One may read the EC50 as the concentration that produces a half-maximal response. As for `Cn1nc(C(=O)NCc2ccc(C#N)cc2)c2c1C(=O)N(CC1(S(=O)(=O)C3(C(O)CO)CC3)CC1)CC2` (single isomer, unassigned) [Example 194, (R)- or (S)-N-(4-Cyanobenzyl)-6-((1-((1-(1,2-dihydroxyethyl)cyclopropyl)sulfonyl)cyclopropyl)methyl)-1-methyl-7-oxo-4,5,6,7-tetrahydro-1H-pyrazolo[3,4-c]pyridine-3-carboxamide], the figures for the IC50 on CMV-polymerase (setting [1]) and against HSV-polymerase were 1 nM and 20 nM, respectively. For the same molecule, the EC50 with CMV worked out at 50 nM.

On to `CC(O)Cn1nc(C(=O)NCc2ccc(C#N)cc2)c2c1C(=O)N(CC1(S(=O)(=O)C3CC3)CC1)CC2` (single isomer, unassigned) [Example 225, (R)- or (S)-N-(4-cyanobenzyl)-6-((1-(cyclopropylsulfonyl)cyclopropyl)methyl)-1-(2-hydroxypropyl)-7-oxo-4,5,6,7-tetrahydro-1H-pyrazolo[3,4-c]pyridine-3-carboxamide], for which the figures for the IC50 on CMV-polymerase (setting [1]) and against HSV-polymerase were 4 nM and 90 nM, respectively. The EC50 in the assay on CMV came to 63 nM.

`Cn1nc(C(=O)NCc2ccc(C#N)cc2)c2ccn(CC3(S(C)(=O)=O)CC3)c(=O)c21` [Example 2, N-(4-Cyanobenzyl)-1-methyl-6-((1-(methylsulfonyl)cyclopropyl)methyl)-7-oxo-6,7-dihydro-1H-pyrazolo[3,4-c]pyridine-3-carboxamide]: the results for the concentration for half-maximal inhibition (IC50) on CMV-polymerase (setting [2]) and against HSV-polymerase were 27 nM and 1880 nM, respectively. In the assay with CMV, the EC50 came out at 536 nM.

Take `CNS(=O)(=O)C1(CN2CCc3c(C(=O)NCc4ccc(C#N)cc4)nn(C)c3C2=O)CC1` [Example 123, N-(4-cyanobenzyl)-1-methyl-6-((1-(N-methylsulfamoyl)cyclopropyl)methyl)-7-oxo-4,5,6,7-tetrahydro-1H-pyrazolo[3,4-c]pyridine-3-carboxamide]: the IC50 on CMV-polymerase (setting [2]) amounted to 9 nM; against HSV-polymerase, 196 nM. Moreover, the EC50 in the assay with CMV was 157 nM.

As to `Cn1nc(C2=NO[C@H](c3ccc(C#N)cc3)C2)c2c1C(=O)N(CC1(S(=O)(=O)C3CC3)CC1)CC2` [Example 33, (S)-4-(3-(6-((1-(cyclopropylsulfonyl)cyclopropyl)methyl)-1-methyl-7-oxo-4,5,6,7-tetrahydro-1H-pyrazolo[3,4-c]pyridin-3-yl)-4,5-dihydroisoxazol-5-yl)benzonitrile], the IC50 on CMV-polymerase (setting [1]) is 1190 nM; on HSV-polymerase, more than 25000 nM. In the assay with CMV, the EC50 stood at 9940 nM.

As to `[2H]C([2H])(O)C(C)(C)S(=O)(=O)C1(CN2CCc3c(C(=O)NCc4ccc(C#N)cc4)nn(C)c3C2=O)CC1` [Example 56, N-(4-Cyanobenzyl)-6-((1-((1-hydroxy-2-methylpropan-2-yl-1,1-d2)sulfonyl)cyclopropyl)methyl)-1-methyl-7-oxo-4,5,6,7-tetrahydro-1H-pyrazolo[3,4-c]pyridine-3-carboxamide], the figures for the 50% inhibitory concentration (IC50) at CMV-polymerase (setting [1]) and on HSV-polymerase were 1 nM and 17 nM, respectively. The EC50 in the assay on CMV worked out at 21 nM.

Regarding `C[C@@H](NC(=O)c1nn(C)c2c1CCN(CC1(S(=O)(=O)C(C)(CO)CO)CC1)C2=O)c1ccc(Cl)cc1` [Example 178, (R)-N-(1-(4-Chlorophenyl)ethyl)-6-((1-((1,3-dihydroxy-2-methylpropan-2-yl)sulfonyl)cyclopropyl)methyl)-1-methyl-7-oxo-4,5,6,7-tetrahydro-1H-pyrazolo[3,4-c]pyridine-3-carboxamide], the IC50 was found to be 240 nM at CMV-polymerase (setting [2]) and 8060 nM against HSV-polymerase. Moreover, the EC50 with CMV worked out at 9720 nM.

With `C[C@H](NC(=O)c1nn(C)c2c1CCN(CC1(S(=O)(=O)C(C)(CO)CO)CC1)C2=O)c1ccc(Cl)cc1` [Example 177, (S)-N-(1-(4-Chlorophenyl)ethyl)-6-((1-((1,3-dihydroxy-2-methylpropan-2-yl)sulfonyl)cyclopropyl)methyl)-1-methyl-7-oxo-4,5,6,7-tetrahydro-1H-pyrazolo[3,4-c]pyridine-3-carboxamide], the IC50 at CMV-polymerase (setting [2]) is 4 nM; on HSV-polymerase, 122 nM. Also, in the assay on CMV, the concentration giving a half-maximal response (EC50) amounted to 168 nM.

`Cn1nc(C(=O)NCc2ccc(C#N)cc2)c2c1C(=O)N(CC1(S(=O)(=O)C(C)(C)COC(F)CO)CC1)CC2` (single isomer, unassigned) [Example 80, (R)- or (S)-N-(4-Cyanobenzyl)-6-((1-((1-(1-fluoro-2-hydroxyethoxy)-2-methylpropan-2-yl)sulfonyl)cyclopropyl)methyl)-1-methyl-7-oxo-4,5,6,7-tetrahydro-1H-pyrazolo[3,4-c]pyridine-3-carboxamide]: the results for the IC50 against CMV-polymerase (setting [1]) and against HSV-polymerase were 6 nM and 67 nM, respectively. Also, the EC50 with CMV stood at 36 nM.

Turning to `CC(=O)NCC(C)(C)S(=O)(=O)C1(CN2CCc3c(C(=O)NCc4ccc(C#N)cc4)nn(C)c3C2=O)CC1` [Example 72, 6-((1-((1-Acetamido-2-methylpropan-2-yl)sulfonyl)cyclopropyl)methyl)-N-(4-cyanobenzyl)-1-methyl-7-oxo-4,5,6,7-tetrahydro-1H-pyrazolo[3,4-c]pyridine-3-carboxamide], the IC50 at CMV-polymerase (setting [1]) is 2 nM; at HSV-polymerase it was 51 nM. For the same molecule, the EC50 in the assay on CMV turned out to be 83 nM.

As for `Cn1nc(C2=NO[C@@H](c3ccc(C#N)cc3)C2)c2c1C(=O)N(CC1(S(=O)(=O)C3CC3)CC1)CC2` [Example 32, (R)-4-(3-(6-((1-(Cyclopropylsulfonyl)cyclopropyl)methyl)-1-methyl-7-oxo-4,5,6,7-tetrahydro-1H-pyrazolo[3,4-c]pyridin-3-yl)-4,5-dihydroisoxazol-5-yl)benzonitrile], the IC50 on CMV-polymerase (setting [1]) stood at 3 nM; against HSV-polymerase it was 161 nM. Moreover, the concentration giving a half-maximal response (EC50) in the assay with CMV was 41 nM.

In the case of `Cn1nc(C(=O)NCc2ccc(C#N)cc2)c2c1C(=O)N(CC1(S(=O)(=O)C(F)F)CC1)CC2` [Example 38, N-(4-Cyanobenzyl)-6-((1-((difluoromethyl)sulfonyl)cyclopropyl)methyl)-1-methyl-7-oxo-4,5,6,7-tetrahydro-1H-pyrazolo[3,4-c]pyridine-3-carboxamide], the IC50 came to 14 nM on CMV-polymerase (setting [2]) and 784 nM against HSV-polymerase. For the same molecule, in the assay with CMV, the EC50 is 607 nM.

Turning to `Cn1nc(C(=O)NCc2ccc(C#N)cc2)c2c1C(=O)N(CC1(S(=O)(=O)C3COC3)CC1)CC2` [Example 168, N-(4-cyanobenzyl)-1-methyl-6-((1-(oxetan-3-ylsulfonyl)cyclopropyl)methyl)-7-oxo-4,5,6,7-tetrahydro-1H-pyrazolo[3,4-c]pyridine-3-carboxamide], the IC50 against CMV-polymerase (setting [1]) is 4 nM; on HSV-polymerase (read-out: HSV-polymerase Biochemical IC50), 97 nM. Also, in the assay on CMV, the EC50 is 72 nM.

Turning to `CC(=O)OCC(C)(C)S(=O)(=O)C1(CN2CCc3c(C(=O)NCc4ccc(C#N)cc4)nn(C)c3C2=O)CC1` [Example 57, 2-((1-((3-((4-Cyanobenzyl)carbamoyl)-1-methyl-7-oxo-4,5-dihydro-1H-pyrazolo[3,4-c]pyridin-6(7H)-yl)methyl)cyclopropyl)sulfonyl)-2-methylpropyl acetate], the values for the concentration for half-maximal inhibition (IC50) on CMV-polymerase (setting [2]) and against HSV-polymerase were 1 nM and 35 nM, respectively. Besides, in the assay on CMV, the EC50 amounted to 22 nM.

As for `Cn1nc(C(=O)NCc2ccc(Cl)cc2)c2c1C(=O)N(CC1(S(=O)(=O)C(C)(C)C(N)=O)CC1)CC2` [Example 109, 6-((1-((1-amino-2-methyl-1-oxopropan-2-yl)sulfonyl)cyclopropyl)methyl)-N-(4-chlorobenzyl)-1-methyl-7-oxo-4,5,6,7-tetrahydro-1H-pyrazolo[3,4-c]pyridine-3-carboxamide], the IC50 at CMV-polymerase (setting [2]) is 3 nM; at HSV-polymerase, 76 nM. Further, the EC50 in the assay with CMV was 78 nM.
